Source: patent EP0044212B1, “Herbicidal o-alkylsulfonyloxy- and o-alkylsulfonylamino-benzenesulfonamides” (E.I. DU PONT DE NEMOURS AND COMPANY, priority 1980, dated 1982)

Columns and labels:
[1] = system: Crabgrass; assay: Test B pre-emergence on Fallsington silt loam; type: in vivo, Digitaria sanguinalis; design: scale not given here; settings: 28 days
Text: (§1) Two plastic bulb pans were filled with fertilized and limed Fallsington silt loam soil. One pan was planted with corn, sorghum, Kentucky bluegrass and several grassy weeds. The other pan was planted with cotton, soybeans, purple nutsedge (Cyperus rotundus), and several broadleaf weeds. The following grassy and broadleaf weeds were planted: crabgrass (Digitaria sanguinalis), barnyardgrass (Echinochloa crusgalli), wild oats (Avena fatua), johnsongrass (Sorghum halepense), dallisgrass (Paspalum dilatatum), giant foxtail (Setaria faberii), cheatgrass (Bromus secalinus), mustard (Brassica arvensis), cocklebur (Xanthium pensylvanicum), pigweed (Amaranthus retroflexus), morningglory (Ipomoea hederacea), cassia (Cassia tora), teaweed (Sida spinosa), velvetleaf (Abutilon theophrasti), and jimsonweed (Datura stramonium). A 12.5 cm diameter plastic pot was also filed with prepared soil and planted with rice and wheat. Another 12.5 cm pot was planted with sugarbeets. The above four containers were treated pre- emergence with several test compounds within the scope of the invention.
(§2) Twenty-eight days after treatment, the plants were evaluated and visually rated for response to the chemical treatments utilizing the rating system described previously for Test A. The data are summarized in Table B.

[2] = system: Ky. bluegrass; assay: Test B pre-emergence on Fallsington silt loam; type: in vivo, Kentucky bluegrass; design: scale not given here; settings: 28 days
Text: as §1, §2

[3] = system: Dallisgrass; assay: Test B pre-emergence on Fallsington silt loam; type: in vivo, Paspalum dilatatum; design: scale not given here; settings: 28 days
Text: as §1, §2

[4] = system: Cheatgrass; assay: Test B pre-emergence on Fallsington silt loam; type: in vivo, Bromus secalinus; settings: 28 days
Text: as §1, §2

[5] = system: Giant Foxtail; assay: Test B pre-emergence on Fallsington silt loam; type: in vivo, Setaria faberii; settings: 28 days
Text: as §1, §2

[6] = system: Morningglory; assay: Test B pre-emergence on Fallsington silt loam; type: in vivo, Ipomoea hederacea; settings: 0.06 kg/ha, 28 days
Text: as §1, §2

[7] = system: Nutsedge; assay: Test B pre-emergence on Fallsington silt loam; type: in vivo, Cyperus rotundus; settings: 28 days
Text: as §1, §2

[8] = system: Corn; assay: Test B pre-emergence on Fallsington silt loam; type: in vivo; design: scale not given here; settings: 28 days
Text: as §1, §2

[9] = system: Wheat; assay: Test B pre-emergence on Fallsington silt loam; type: in vivo; design: scale not given here; settings: 28 days
Text: as §1, §2

[10] = system: Soybean; assay: Test B pre-emergence on Fallsington silt loam; type: in vivo, soybeans; settings: 28 days
Text: as §1, §2

[11] = system: Cassia; assay: Test B pre-emergence on Fallsington silt loam; type: in vivo, Cassia tora; settings: 0.06 kg/ha, 28 days
Text: as §1, §2

[12] = system: Wild Oats; assay: Test B pre-emergence on Fallsington silt loam; type: in vivo, Avena fatua; design: scale not given here; settings: 28 days
Text: as §1, §2

[13] = system: Barnyardgrass; assay: Test B pre-emergence on Fallsington silt loam; type: in vivo, Echinochloa crusgalli; settings: 28 days
Text: as §1, §2

[14] = system: Nutsedge; assay: Test F over-the-top soil/foliage treatment; type: in vivo, Cyperus rotundus; design: scale not given here; settings: soil/foliage spray, ~14 days
Experimental: (§3) The test chemicals, dissolved in a non-phytotoxic solvent, were applied in an overall spray to the foliage and surrounding […] of selected plant species. […] Approximately fourteen days after treatment, all species were visually compared to untreated controls and rated for response to treatment.
(§4) All plant species were seeded in Woodstown sandy loam soil and grown in a greenhouse. The following species were grown in soil contained in plastic pots (25 cm diameter by 13 cm deep): soybeans, cotton, alfalfa, corn, rice, wheet, sorghum, velvetleaf (Abutilon theophrasti), sesbania (Sesbania exaltata), Cassia (Cassia tora), morningglory (Ipomoea hederacea), jimsonweed (Datura stramonium), cocklebur (Xanthium pensylvanicum), crabgrass (Digitaria spp.), nutsedge (Cyperus rotundus), barnyardgrass (Echinochloa crusgalli), giant foxtail (Setaria faberii) and wild oats (Avena fatua). The following species were grown in soil in a paper cup (12 cm diameter by 13 cm deep): sunflower, sugarbeets, and mustard. All plants were sprayed approximately 14 days after planting.

[15] = system: Wheat; assay: Test F over-the-top soil/foliage treatment; type: in vivo, wheet; design: scale not given here; settings: soil/foliage spray, ~14 days
Experimental: as §3, §4

[16] = system: Wild Oats; assay: Test F over-the-top soil/foliage treatment; type: in vivo, Avena fatua; design: scale not given here; settings: soil/foliage spray, ~14 days
Experimental: as §3, §4

[17] = system: Sugarbeets; assay: Test F over-the-top soil/foliage treatment; type: in vivo; settings: soil/foliage spray; 0.06 kg/ha; ~14 days
Experimental: as §3, §4

[18] = system: Corn; assay: Test F over-the-top soil/foliage treatment; type: in vivo; settings: soil/foliage spray, ~14 days
Experimental: as §3, §4

[19] = system: Mustard; assay: Test F over-the-top soil/foliage treatment; type: in vivo; settings: soil/foliage spray, ~14 days
Experimental: as §3, §4

[20] = system: Sunflower; assay: Test F over-the-top soil/foliage treatment; type: in vivo; settings: soil/foliage spray, ~14 days
Experimental: as §3, §4

[21] = system: Barnyardgrass; assay: Test F over-the-top soil/foliage treatment; type: in vivo, Echinochloa crusgalli; design: scale not given here; settings: soil/foliage spray, ~14 days
Experimental: as §3, §4

[22] = system: Crabgrass; assay: Test F over-the-top soil/foliage treatment; type: in vivo, Digitaria spp.; design: scale not given here; settings: soil/foliage spray, ~14 days
Experimental: as §3, §4

[23] = system: Cocklebur; assay: Test B pre-emergence on Fallsington silt loam; type: in vivo, Xanthium pensylvanicum; settings: 0.25 kg/ha, 28 days
Text: as §1, §2

[24] = system: Sugarbeets; assay: Test B pre-emergence on Fallsington silt loam; type: in vivo; design: scale not given here; settings: 0.25 kg/ha, 28 days
Text: as §1, §2

[25] = system: Sesbania; assay: Test F over-the-top soil/foliage treatment; type: in vivo, Sesbania exaltata; design: scale not given here; settings: soil/foliage spray; 0.12 kg/ha; ~14 days
Experimental: as §3, §4

[26] = system: Giant Foxtail; assay: Test F over-the-top soil/foliage treatment; type: in vivo, Setaria faberii; design: scale not given here; settings: soil/foliage spray, ~14 days
Experimental: as §3, §4

[27] = system: Alfalfa; assay: Test F over-the-top soil/foliage treatment; type: in vivo; design: scale not given here; settings: soil/foliage spray; 0.06 kg/ha; ~14 days
Experimental: as §3, §4

[28] = system: Sorghum; assay: Test F over-the-top soil/foliage treatment; type: in vivo; design: scale not given here; settings: soil/foliage spray, ~14 days
Experimental: as §3, §4

[29] = system: Johnsongrass; assay: Test B pre-emergence on Fallsington silt loam; type: in vivo, Sorghum halepense; design: scale not given here; settings: 28 days
Text: as §1, §2

Structure (SMILES): CCCS(=O)(=O)Oc1ccccc1S(=O)(=O)NC(=O)Nc1nc(OC)cc(OC)n1 [Compound 36, N-[(4,6-dimethoxypropimidin-2-yl)aminocarbonyl]-2-hydroxybenzenesulfonamide, 1-propanesulfonate]
- Crabgrass response rating ([1]; 0.06 kg/ha): 2G
- Crabgrass response rating ([1]; 0.25 kg/ha): 4G
- Ky. bluegrass response rating ([2]; 0.06 kg/ha): 6G
- Ky. bluegrass response rating ([2]; 0.25 kg/ha): 7G
- Dallisgrass response rating ([3]; 0.06 kg/ha): 4G
- Dallisgrass response rating ([3]; 0.25 kg/ha): 5G
- Cheatgrass response rating ([4]; 0.06 kg/ha): 6G
- Cheatgrass response rating ([4]; 0.25 kg/ha): 7G
- Giant Foxtail response rating ([5]; 0.06 kg/ha): 4G
- Morningglory response rating [6]: 4G
- Nutsedge response rating ([7]; 0.06 kg/ha): 7G
- Corn response rating ([8]; 0.06 kg/ha): 3G
- Corn response rating ([8]; 0.25 kg/ha): 4G
- Wheat response rating ([9]; 0.06 kg/ha): 0
- Wheat response rating ([9]; 0.25 kg/ha): 0
- Soybean response rating ([10]; 0.06 kg/ha): 2G
- Cassia response rating [11]: 6G
- Wild Oats response rating ([12]; 0.06 kg/ha): 4G
- Wild Oats response rating ([12]; 0.25 kg/ha): 4G
- Barnyardgrass response rating ([13]; 0.06 kg/ha): 4G

Structure (SMILES): CCCS(=O)(=O)Oc1ccccc1S(=O)(=O)NC(=O)Nc1nc(C)nc(OC)n1 [Compound 39, 2-hydroxy-N-[(4-methoxy-6-methyl-1,3,5-triazin-2-yl)aminocarbonyl]benzenesulfonamide, 1-propanesulfonate]
- Nutsedge response rating ([14]; 0.007 kg/ha): 5G
- Nutsedge response rating ([14]; 0.015 kg/ha): 0
- Nutsedge response rating ([14]; 0.03 kg/ha): 3G
- Nutsedge response rating ([14]; 0.06 kg/ha): 0
- Nutsedge response rating ([14]; 0.12 kg/ha): 1G
- Crabgrass response rating ([1]; 0.06 kg/ha): 2G
- Crabgrass response rating ([1]; 0.25 kg/ha): 2G
- Ky. bluegrass response rating ([2]; 0.06 kg/ha): 2G
- Ky. bluegrass response rating ([2]; 0.25 kg/ha): 4G
- Dallisgrass response rating ([3]; 0.06 kg/ha): 3G
- Dallisgrass response rating ([3]; 0.25 kg/ha): 0
- Wheat response rating ([15]; 0.007 kg/ha): 0
- Wheat response rating ([15]; 0.015 kg/ha): 0
- Wheat response rating ([15]; 0.03 kg/ha): 0
- Wheat response rating ([15]; 0.06 kg/ha): 0
- Wheat response rating ([15]; 0.12 kg/ha): 0
- Cheatgrass response rating ([4]; 0.06 kg/ha): 0
- Cheatgrass response rating ([4]; 0.25 kg/ha): 3G
- Wild Oats response rating ([16]; 0.007 kg/ha): 0
- Wild Oats response rating ([16]; 0.03 kg/ha): 2G
- Wild Oats response rating ([16]; 0.06 kg/ha): 0
- Wild Oats response rating ([16]; 0.12 kg/ha): 0
- Sugarbeets response rating [17]: 10C
- Corn response rating ([18]; 0.007 kg/ha): 2G
- Corn response rating ([18]; 0.06 kg/ha): 0
- Corn response rating ([18]; 0.12 kg/ha): 0
- Mustard response rating ([19]; 0.06 kg/ha): 10C
- Mustard response rating ([19]; 0.12 kg/ha): 10C
- Sunflower response rating ([20]; 0.015 kg/ha): 10C
- Sunflower response rating ([20]; 0.06 kg/ha): 10C
- Sunflower response rating ([20]; 0.12 kg/ha): 10C
- Barnyardgrass response rating ([21]; 0.007 kg/ha): 2G
- Barnyardgrass response rating ([21]; 0.015 kg/ha): 0
- Barnyardgrass response rating ([21]; 0.03 kg/ha): 3G
- Barnyardgrass response rating ([21]; 0.06 kg/ha): 0
- Barnyardgrass response rating ([21]; 0.12 kg/ha): 0
- Giant Foxtail response rating ([5]; 0.06 kg/ha): 0
- Giant Foxtail response rating ([5]; 0.25 kg/ha): 2G
- Crabgrass response rating ([22]; 0.007 kg/ha): 0
- Crabgrass response rating ([22]; 0.015 kg/ha): 0
- Crabgrass response rating ([22]; 0.03 kg/ha): 0
- Crabgrass response rating ([22]; 0.06 kg/ha): 0
- Crabgrass response rating ([22]; 0.12 kg/ha): 0
- Cocklebur response rating [23]: 10C
- Morningglory response rating [6]: 9G
- Nutsedge response rating ([7]; 0.06 kg/ha): 4G
- Nutsedge response rating ([7]; 0.25 kg/ha): 6G
- Sugarbeets response rating [24]: 10C
- Corn response rating ([8]; 0.06 kg/ha): 2G
- Corn response rating ([8]; 0.25 kg/ha): 4G
- Wheat response rating ([9]; 0.06 kg/ha): 0
- Wheat response rating ([9]; 0.25 kg/ha): 0
- Soybean response rating ([10]; 0.06 kg/ha): 3G
- Soybean response rating ([10]; 0.25 kg/ha): 4G
- Sesbania response rating [25]: 10C
- Giant Foxtail response rating ([26]; 0.007 kg/ha): 1G
- Giant Foxtail response rating ([26]; 0.03 kg/ha): 2G
- Giant Foxtail response rating ([26]; 0.06 kg/ha): 0
- Giant Foxtail response rating ([26]; 0.12 kg/ha): 0
- Wild Oats response rating ([12]; 0.06 kg/ha): 3G
- Wild Oats response rating ([12]; 0.25 kg/ha): 3G
- Barnyardgrass response rating ([13]; 0.06 kg/ha): 4G
- Barnyardgrass response rating ([13]; 0.25 kg/ha): 5G
- Alfalfa response rating [27]: 10C
- Sorghum response rating ([28]; 0.007 kg/ha): 3G
- Sorghum response rating ([28]; 0.03 kg/ha): 5G
- Sorghum response rating ([28]; 0.06 kg/ha): 0
- Sorghum response rating ([28]; 0.12 kg/ha): 0
- Johnsongrass response rating ([29]; 0.06 kg/ha): 4G
- Johnsongrass response rating ([29]; 0.25 kg/ha): 3G
